From patent US4145554A, “3-Nitropyrazole derivatives” (Eli Lilly and Company, priority 1977, dated 1979)
In brackets after ≈: the same amount, converted by molar mass. Like-named read-outs stand apart in the source and are kept apart here.

Legend:
Pseudomonas sp. = assay: in vitro tube dilution test (MIC); type: cell-based
Source text: (§1) Our compound, 1-(2-hydroxyethyl)-3-nitro-4-pyrazolecarboxamide, has been extensively tested in vitro to determine the range of microorganisms against which it is active. The table of data below reports the minimum inhibitory concentration (MIC) at which the compound is effective in controlling a variety of microorganisms in a standard tube dilution test system. The MIC is reported as micrograms of compound per milliliter.
(§2) The other preferred compounds of our invention have also been thoroughly tested in the in vitro tube dilution test.

[1] = tested on: Salmonella heidelburg 1593; assay: in vitro tube dilution test (MIC); type: cell-based; settings: Salmonella heidelburg 1593, tube dilution
Source text: as §1, §2

Salmonella pullorum Ill. = assay: in vitro tube dilution test (MIC); type: cell-based; settings: Salmonella enterica
Source text: as §1, §2

[2] = tested on: Salmonella typhimurium 1335; assay: in vitro tube dilution test (MIC); type: cell-based; settings: Salmonella enterica; Salmonella typhimurium 1335, tube dilution
Source text: as §1, §2

Pasteurella multocida = assay: in vitro tube dilution test (MIC); type: cell-based; settings: tube dilution, read-out: MIC
Source text: as §1, §2
(§3) Other compounds of our invention have also been tested in the tube dilution test and shown to have in vitro activity against a number of microorganisms. The table below reports tests of a number of exemplary compounds against exemplary microorganisms. The compounds are identified by their numbers in the listing above. The data are reported as the MIC in micrograms per milliliter against the named exemplary microorganisms.

[3] = tested on: Mycoplasma gallisepticum 38502; assay: in vitro tube dilution test (MIC); type: cell-based; settings: Mycoplasmoides gallisepticum; Mycoplasma gallisepticum 38502, tube dilution
Source text: as §2

[4] = tested on: Staphylococcus aureus 3055; assay: in vitro tube dilution test (MIC); type: cell-based; settings: Staphylococcus aureus 3055, tube dilution
Source text: as §2

Salmonella dublin = assay: in vitro tube dilution test (MIC); type: cell-based; settings: Salmonella enterica; Salmonella dublin, tube dilution; read-out: MIC
Source text: as §2, §3

[5] = tested on: Staphylococcus aureus sp. 1130; assay: in vitro tube dilution test (MIC); type: cell-based; settings: read-out: MIC
Source text: as §2, §3

Vibrio coli 3811 = assay: in vitro tube dilution test (MIC); type: cell-based; settings: Campylobacter coli; Vibrio coli 3811, tube dilution; read-out: MIC
Source text: as §2, §3

Streptococcus pyogenes = assay: Tests in mice, Streptococcus pyogenes infection; type: in vivo; settings: S. pyogenes; for Days Survived: two subcutaneous doses of 83 mg./kg., 1 and 5 hours; for ED50: Streptococcus pyogenes, sc, subcutaneous, 1 and 5 hours post-inoculation
Experimental: (§4) Groups of laboratory mice were inoculatd with E. coli or with Streptococcus pyogenes. The 3-nitropyrazoles were administered in two different modes to the infected mice. In one group of tests, the compound was administered in two subcutaneous doses of 83 mg./kg. each, given 1 and 5 hours after the mice were inoculated with the organism. The mice were observed, and the results reported below as the number of days the treated mice survived the challenge.
(§5) In the other group of tests, the dose of each compound which allowed 50 percent of the treated mice to survive the challenge was determined. Again, the compound was administered in subcutane divided doses, 1 and 5 hours post-inoculation.

E. coli = assay: Tests in mice, E. coli infection; type: in vivo; settings: for ED50: Escherichia coli, sc, subcutaneous, 1 and 5 hours post-inoculation; for Days Survived: two subcutaneous doses of 83 mg./kg., 1 and 5 hours
Experimental: as §4, §5

Salmonella typhimurium = assay: Salmonellosis in chickens, single injection to day-old chicks; type: in vivo; settings: for responders at 60 mg/kg: Salmonella enterica, TYPHIMURIUM, 168 h
Experimental: A number of our 3-nitropyrazoles have been tested against an induced infection of Salmonella typhimurium in day-old chicks. The test was conducted by administering a single injection of 60 mg./kg. of the compounds to each of five chicks. The following day, the chicks were challenged by the subcutaneous injection of a dispersion of S. typhimurium organisms sufficient to kill most or all of the untreated control chicks.
Some of the compounds were tested more than once, in which instances the data are reported as the total survivors from the multiple treatment groups. Untreated, challenged control groups of chicks were tested together with each batch of groups of chicks to which test compounds were administered. Since the mortality of the untreated control chicks varied somewhat from one group of tests to another, results of the untreated control groups are reported below with each test.

H. meleagridis [6] = assay: Blackhead in poultry, chicks; type: in vivo
Experimental: (§6) One- to three-week-old chicks and turkey poults were obtained from homogeneous source flocks and allocated into treatment groups. Some groups were held as infected, untreated controls, and other groups were treated with 3-nitropyrazoles by administering the compounds in the birds' feed. Various concentrations of the pyrazoles were administered to determine the least concentration which protected the birds. A few days after the administration of medicated feed began, all of the birds were challenged by rectally administering a suspension of at least 5,000 H. meleagridis protozoa per chick. The challenge organisms had been originally obtained from infected chickens, and were grown in vitro to provide a supply of organisms for testing.
(§7) The birds were held for about seven days after the challenge was administered, during which time the administration of pyrazole-medicated feed was continued. Then all of the chicks, including the untreated, infected controls, were sacrificed and necropsied. The cecum and the liver of each bird were examined for characteristic H. meleagridis lesions.
(§8) For each compound, the lowest feed concentration which gave an active response is indicated. While feed consumption data were not taken during the tests, the birds ate at such a rate that a feed concentration of 0.02 percent is equivalent to a treatment rate of about 10 mg./kg./day.

H. meleagridis [7] = assay: Blackhead in poultry, turkeys; type: in vivo
Experimental: as §6, §7, §8

Escherichia coli = assay: in vitro tube dilution test (MIC); type: cell-based; settings: tube dilution, read-out: MIC
Source text: as §1, §3

Mycoplasma gallisepticum = assay: in vitro tube dilution test (MIC); type: cell-based; settings: Mycoplasmoides gallisepticum; Mycoplasma gallisepticum, tube dilution; read-out: MIC
Source text: as §1, §3

Streptococcus sp. 80 = assay: in vitro tube dilution test (MIC); type: cell-based; settings: Streptococcus sp. 80, tube dilution; read-out: MIC
Source text: as §3

Erwinia amylovora = assay: Fire blight of pear, in vivo greenhouse test
Experimental: An in vivo test was conducted against the fire blight organism, Erwinia amylovora. Plants infected with E. amylovora were sprayed with aqueous dispersions containing 100 ppm. and 500 ppm. of the test compounds. […] The compounds are identified below by their compound numbers in the above listing.

[8] = single injection of 60 mg./kg., seven days, read-out: Survival (converted)
[9] = Staphylococcus aureus sp. 1130, tube dilution

Row | Structure (SMILES) | MIC (Pasteurella multocida) | MIC (Salmonella dublin) | MIC (Vibrio coli 3811) | Days Survived (Streptococcus pyogenes) | Days Survived (E. coli) | responders at 60 mg/kg (Salmonella typhimurium; [8]) | Active Level (lowest feed concentration which gave an active response) (H. meleagridis [6]) | MIC (Escherichia coli) | MIC (Mycoplasma gallisepticum) | MIC [5, 9] | MIC (Streptococcus sp. 80) | further results
1 | CNC(=O)c1cn(CCO)nc1[N+](=O)[O-] [Compound 58, 1-(2-hydroxyethyl)-N-methyl-3-nitro-4-pyrazolecarboxamide] | 0.78 µg/mL (≈ 3.64 µM) | 12.5 µg/mL (≈ 58.4 µM) | 25 µg/mL (≈ 117 µM) | 1.8 days | 7.0 days | 90% |  |  |  |  |  | MIC (Pseudomonas sp.): 25 µg/mL (≈ 117 µM); MIC [1]: 12.5 µg/mL (≈ 58.4 µM); MIC (Salmonella pullorum Ill.): 3.12 µg/mL (≈ 14.6 µM); MIC [2]: 12.5 µg/mL (≈ 58.4 µM); MIC [3]: 6.25 µg/mL (≈ 29.2 µM); MIC [4]: 10 µg/mL (≈ 46.7 µM); MIC ([5]; Staphylococcus aureus, SP.1130, Staphyloccocus 1130, tube dilution): 12.5 µg/mL (≈ 58.4 µM); ED50 (E. coli): 40 mg/kg
2 | NC(=O)c1cn(CCc2ccccc2)nc1[N+](=O)[O-] [Compound 17, 1-phenethyl-3-nitro-4-pyrazolecarboxamide] |  |  |  |  |  |  | .0067% |  |  |  |  | Active Level (lowest feed concentration which gave an active response) (H. meleagridis [7]): .02%
3 | CNc1nnc(-c2cn(C)nc2[N+](=O)[O-])s1 [Compound 2, 2-(1-methyl-3-nitro-4-pyrazolyl)-5-methylamino-1,3,4-thiadiazole] |  | 50 µg/mL (≈ 208 µM) | 25 µg/mL (≈ 104 µM) |  |  |  | .02% | 50 µg/mL (≈ 208 µM) | 6.25 µg/mL (≈ 26 µM) | 50 µg/mL (≈ 208 µM) | 50 µg/mL (≈ 208 µM) | chicks protected of the 5-bird treated group (Salmonella typhimurium; salmonella challenge): at least three chicks of the 5-bird treated group
4 | CCS(=O)(=O)CCn1cc(C(N)=O)c([N+](=O)[O-])n1 [Compound 35, 1-(2-ethylsulfonylethyl)-3-nitro-4-pyrazolecarboxamide] | 6.25 µg/mL (≈ 22.6 µM) | 50 µg/mL (≈ 181 µM) | 50 µg/mL (≈ 181 µM) | 7.0 days | 1.0 days | 80% |  | 50 µg/mL (≈ 181 µM) | > 50 µg/mL | 3.12 µg/mL (≈ 11.3 µM) | 25 µg/mL (≈ 90.5 µM) | ED50 (Streptococcus pyogenes): 36.2 mg/kg
5 | COCCn1cc(C(N)=O)c([N+](=O)[O-])n1 [Compound 65, 1-(2-methoxyethyl)-3-nitro-4-pyrazolecarboxamide] | 50 µg/mL (≈ 233 µM) | 12.5 µg/mL (≈ 58.4 µM) | 50 µg/mL (≈ 233 µM) |  |  | 70% | .02% | 12.5 µg/mL (≈ 58.4 µM) | 50 µg/mL (≈ 233 µM) | 50 µg/mL (≈ 233 µM) | > 50 µg/mL | 
6 | NC(=O)c1cn(CC2CC2)nc1[N+](=O)[O-] [Compound 90, 1-cyclopropylmethyl-3-nitro-4-pyrazolecarboxamide] | 25 µg/mL (≈ 119 µM) | 50 µg/mL (≈ 238 µM) | 50 µg/mL (≈ 238 µM) |  |  | 80% | .02% | 50 µg/mL (≈ 238 µM) | > 50 µg/mL | 50 µg/mL (≈ 238 µM) | > 50 µg/mL | 
7 | CNC(=O)c1cn(C)nc1[N+](=O)[O-] [Compound 61, N,1-dimethyl-3-nitro-4-pyrazolecarboxamide] |  | 50 µg/mL (≈ 272 µM) |  | 1.0 days |  | 70% |  | 50 µg/mL (≈ 272 µM) | 12.5 µg/mL (≈ 67.9 µM) | 50 µg/mL (≈ 272 µM) | 50 µg/mL (≈ 272 µM) | ED50 (Streptococcus pyogenes): > 83 mg/kg; ED50 (E. coli): 68 mg/kg
8 | Cn1cc(C(N)=O)c([N+](=O)[O-])n1 [Compound 3, 1-methyl-3-nitro-4-pyrazolecarboxamide] |  | 6.25 µg/mL (≈ 36.7 µM) | 6.25 µg/mL (≈ 36.7 µM) |  |  |  | .02% | 12.5 µg/mL (≈ 73.5 µM) | 50 µg/mL (≈ 294 µM) | 12.5 µg/mL (≈ 73.5 µM) | 100 µg/mL (≈ 588 µM) | Percent Control of fire blight (Erwinia amylovora; 100 ppm.): 25%; Percent Control of fire blight (Erwinia amylovora; 500 ppm.): 75%
9 | CC(C)NC(=O)c1cn(CCO)nc1[N+](=O)[O-] [Compound 88, 1-(2-hydroxyethyl)-N-isopropyl-3-nitro-4-pyrazolecarboxamide] | 6.25 µg/mL (≈ 25.8 µM) | > 50 µg/mL | 50 µg/mL (≈ 206 µM) | 2.0 days | 4.8 days |  |  | 50 µg/mL (≈ 206 µM) | 3.12 µg/mL (≈ 12.9 µM) | > 50 µg/mL | > 50 µg/mL | 
10 | NC(=O)OCCn1cc(C(N)=O)c([N+](=O)[O-])n1 [Compound 93, [2-(4-carbamoyl-3-nitropyrazol-1-yl)ethyl] carbamate] | < 1.56 µg/mL | 6.25 µg/mL (≈ 25.7 µM) | 50 µg/mL (≈ 206 µM) |  |  |  |  | 12.5 µg/mL (≈ 51.4 µM) | 12.5 µg/mL (≈ 51.4 µM) | 3.12 µg/mL (≈ 12.8 µM) | 6.25 µg/mL (≈ 25.7 µM) | responders at 60 mg/kg (Salmonella typhimurium; read-out: Survival): 100%
